The structures appear in SMILES notation.

One test relates to Rattus norvegicus. Put plainly: Effective dose gastroprotective activity in rat ethanol-induced damage model following intraperitoneal administration. Format: functional. Particulars: ip.
Compound `CCc1cc(=O)c2ccccc2o1` came in with an ED50 of 4.3 mg/kg.

The subject of a further test is Rattus norvegicus. Put plainly: Gastroprotective activity in rat ethanol-induced damage model following intraperitoneal administration.
Conditions: not given
The arrangement: concentration or dose not given beside the values. Format: functional.
Turning to `O=c1cc(-c2cccnc2)oc2ccccc12`, the Protection worked out at 97%.
In the case of `Nc1ccccc1C(=O)/C=C/c1ccccc1`, the Protection was 36%.
As to `Cc1cc(=O)c2ccccc2o1`, the Protection amounted to 76%.
Still for that read-out and setting: the result for `CCc1cc(=O)c2ccccc2o1` reads 74%; that for `O=c1cc(-c2cccs2)oc2ccccc12`, 82%; that for `S=c1cc(-c2ccccc2)oc2ccccc12`, 58%.
For the compound `COc1ccccc1C(=O)CC(=O)c1ccccc1`, the Protection was 19%.
`COc1cccc2oc(C)cc(=O)c12`: the Protection is 81%.
On to `Oc1cc(-c2ccccc2)nc2ccccc12`, for which the Protection is recorded as 17%.
`COc1cccc2c1C(=O)CC(c1ccccc1)O2` (configuration not stated) registered a Protection of 32%.
Still for that read-out and setting: the result for `Cn1c(-c2cc(=O)c3ccccc3o2)cc2ccccc21` reads 74%; that for `O=c1cc(-c2ccccc2)sc2ccccc12`, 67%; that for `O=C(/C=C/c1ccccc1)c1ccccc1` [CHALCONE], 32%.
Still for that read-out and setting: under `O=C1CC(c2ccccc2)Oc2ccccc21` (configuration not stated) [FLAVANONE] stands 24%.
In the case of `O=c1cc(-c2ccccc2)oc2ccccc12` [FLAVONE], the Protection worked out at 88%.
On to `CC(C)Oc1ccc2c(=O)c(-c3ccccc3)coc2c1` [IPRIFLAVONE], for which the Protection was less than 10%.
Compound `O=c1c(-c2ccccc2)coc2ccccc12` [ISOFLAVONE] came in with a Protection of less than 10%.

Another test deals with Rattus norvegicus. The test is described as follows: Compound was tested for gastroprotective activity in rat ethanol-induced damage model following oral administration (0.1 mg/kg). Format: functional.
Conditions: not given
In turn, `CN/C(=N\CCSCc1nc[nH]c1C)NC#N` [CIMETIDINE] gave a Protection of 14%.
`CCCCC[C@H](O)/C=C/[C@H]1[C@H](O)CC(=O)[C@@H]1C/C=C\CCCC(=O)O` [DINOPROSTONE] showed a Protection of 64%.

For a further test, the system named is Rattus norvegicus. The test is described as follows: Effective dose for gastroprotective activity in rat ethanol-induced damage model following intraperitoneal administration. Format: functional. The following applies: ip.
For `Cc1cc(=O)c2ccccc2o1`, the 50% effect level (ED50) was put at a dose of 5.4 mg/kg.
For `O=c1cc(-c2ccccc2)oc2ccccc12` [FLAVONE], the ED50 worked out at 6.9 mg/kg.

The values are drawn from ChEMBL document CHEMBL1149989, “Synthesis and biological evaluation of flavonoids and related compounds as gastroprotective agents” (1996).
